Laboratory results published in the NIST ThermoML archive (doi:10.1021/je700260f).

Settings: 303.15 K, Liquid, Vibrating tube method

FC(C(F)(F)F)C(F)(F)F [1,1,1,2,3,3,3-heptafluoropropane]
Settings	mass density [kg/m3]
8067 kPa	1421.1
8093 kPa	1421.3
8123 kPa	1421.4
8152 kPa	1421.5
8181 kPa	1421.9
8211 kPa	1422
8250 kPa	1422.2
8280 kPa	1422.3
8306 kPa	1422.5
8340 kPa	1422.8
8378 kPa	1423
8411 kPa	1423.1
8436 kPa	1423.4
8471 kPa	1423.6
8496 kPa	1423.6
8526 kPa	1423.9
8556 kPa	1423.9
8581 kPa	1424.3
8610 kPa	1424.4
8640 kPa	1424.4
8671 kPa	1424.6
8697 kPa	1424.8
8726 kPa	1425
8752 kPa	1425.2
8778 kPa	1425.4
8808 kPa	1425.5
8847 kPa	1425.8
8873 kPa	1425.9
8908 kPa	1426.2
8947 kPa	1426.2
8978 kPa	1426.5
9004 kPa	1426.6
9031 kPa	1426.8
9066 kPa	1426.9
9263 kPa	1428.1
9299 kPa	1428.3
9334 kPa	1428.5
9370 kPa	1428.6
9401 kPa	1428.9
9445 kPa	1429.1
9480 kPa	1429.3
9502 kPa	1429.4
9533 kPa	1429.7
9567 kPa	1429.9
9598 kPa	1429.9
9634 kPa	1430.2
9661 kPa	1430.3
9693 kPa	1430.5
9720 kPa	1430.6
9747 kPa	1430.8
9779 kPa	1431.1
9806 kPa	1431.2
9833 kPa	1431.3
9878 kPa	1431.5
9906 kPa	1431.7
9938 kPa	1431.8
9969 kPa	1432.1
9996 kPa	1432.3
10037 kPa	1432.6
10069 kPa	1432.6
10110 kPa	1432.8
10137 kPa	1433
10174 kPa	1433.2
10201 kPa	1433.4
10228 kPa	1433.5
10255 kPa	1433.7
10278 kPa	1433.7
10311 kPa	1434
10343 kPa	1434
10379 kPa	1434.3
10406 kPa	1434.4
10434 kPa	1434.6
10466 kPa	1434.8
10494 kPa	1434.9
10531 kPa	1435.1
10559 kPa	1435.3
10596 kPa	1435.4
10629 kPa	1435.8
10662 kPa	1436
10695 kPa	1436
10725 kPa	1436.2
10753 kPa	1436.4
10791 kPa	1436.6
10824 kPa	1436.9
10960 kPa	1437.4
11032 kPa	1437.7
11066 kPa	1438
11105 kPa	1438.2
11143 kPa	1438.4
11183 kPa	1438.6
11218 kPa	1438.8
11258 kPa	1439.1
11297 kPa	1439.2
11332 kPa	1439.3
11372 kPa	1439.7
11402 kPa	1439.8
11442 kPa	1439.8
11473 kPa	1440.1
11525 kPa	1440.4
11555 kPa	1440.6
11599 kPa	1440.8
11633 kPa	1441
11668 kPa	1441.2
11703 kPa	1441.2
11734 kPa	1441.6
11770 kPa	1441.7
11800 kPa	1442
11840 kPa	1442.2
11875 kPa	1442.2
11915 kPa	1442.5
11952 kPa	1442.7
11987 kPa	1442.8
12022 kPa	1443
12052 kPa	1443.3
12404 kPa	1444.9
12445 kPa	1445.1
12481 kPa	1445.4
12527 kPa	1445.6
12558 kPa	1445.7
12595 kPa	1446
12631 kPa	1446.1
12681 kPa	1446.4
12722 kPa	1446.5
12752 kPa	1446.7
12793 kPa	1447
12830 kPa	1447.2
12877 kPa	1447.5
12924 kPa	1447.5
12965 kPa	1447.8
12995 kPa	1447.8
13030 kPa	1448.2
13077 kPa	1448.3
13108 kPa	1448.5
13150 kPa	1448.8
13186 kPa	1448.9
13229 kPa	1449.2
13275 kPa	1449.4
13317 kPa	1449.6
13364 kPa	1449.7
13400 kPa	1449.9
13432 kPa	1450.1
13468 kPa	1450.3
13516 kPa	1450.6
13547 kPa	1450.6
13593 kPa	1450.8
13620 kPa	1451.1
13652 kPa	1451.1
13689 kPa	1451.3
13730 kPa	1451.6
13762 kPa	1451.7
13794 kPa	1451.9
13826 kPa	1452
13867 kPa	1452.1
13900 kPa	1452.4
13937 kPa	1452.6
13966 kPa	1452.7
14003 kPa	1452.9
14032 kPa	1453.1
14069 kPa	1453.3
14113 kPa	1453.4
14146 kPa	1453.5
14189 kPa	1453.8
14223 kPa	1454.1
14261 kPa	1454.1
14289 kPa	1454.2
14322 kPa	1454.4
14355 kPa	1454.7
14388 kPa	1454.9
14416 kPa	1455
14450 kPa	1455
14493 kPa	1455
14521 kPa	1455.4
14555 kPa	1455.5
14875 kPa	1457.1
14909 kPa	1457.2
14938 kPa	1457.4
14981 kPa	1457.7
15024 kPa	1457.9
15062 kPa	1457.8
15091 kPa	1458
15121 kPa	1458.3
15159 kPa	1458.3
15193 kPa	1458.5
15222 kPa	1458.7
15252 kPa	1458.8
15283 kPa	1459
15317 kPa	1459.2
15351 kPa	1459.2
15389 kPa	1459.5
15422 kPa	1459.6
15461 kPa	1459.8
15500 kPa	1459.9
15540 kPa	1460.2
15578 kPa	1460.3
15623 kPa	1460.4
15662 kPa	1460.6
15692 kPa	1460.8
15721 kPa	1461.1
15751 kPa	1461.1
15780 kPa	1461.1
15805 kPa	1461.3
15840 kPa	1461.4
15879 kPa	1461.7
15914 kPa	1461.8
15948 kPa	1462
